The source of these data is patent US10858362B2, “Imidazopyrazinones as PDE1 inhibitors” (H. Lundbeck A/S, priority 2015, dated 2020).

Common to all, as to format: biochemical
Assay [1] deals with PDE9 (Homo sapiens (Human), UniProt O76083). The experiment in a line: PDE9 inhibition assay. The method, boiled down:
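Human PDE9 in 50 mM HEPES pH 7.6, 10 mM MgCl2, 0.02% Tween20, enzyme set to convert 20-25% of 10 nM ^3H-cAMP substrate; inhibitors at varying amounts. 1 hr incubation, stopped with yttrium silicate SPA beads, settled 1 hr in dark, then scintillation counted.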

In assay [2] the target is PDE1B (Homo sapiens (Human), UniProt Q01064). The experiment in a line: PDE1 inhibition assay, PDE1B. The following applies: for IC50: 15 nM tritium labelled cAMP. How it is done:
(§1) Reactions were initiated by addition of the cyclic nucleotide substrate, and reactions were allowed to proceed for 1 h at room temperature before being terminated through mixing with 20 μL (0.2 mg) yttrium silicate SPA beads (PerkinElmer). The beads were allowed to settle for 1 h in the dark before the plates were counted in a Wallac 1450 Microbeta counter.

The target in assay [3] is PDE1C (Homo sapiens (Human), UniProt Q14123). The experiment in a line: PDE1 inhibition assay, PDE1C. The following applies: for IC50: 15 nM tritium labelled cAMP. How it is done:
as §1

In assay [4] the target is PDE1A (Homo sapiens (Human), UniProt P54750). The experiment in a line: PDE1 inhibition assay, PDE1A. The following applies: for IC50: 15 nM tritium labelled cAMP. The procedure: Reactions were initiated by addition of the cyclic nucleotide substrate, and reactions were allowed to proceed for 1 h at room temperature before being terminated through mixing with 20 μL (0.2 mg) yttrium silicate SPA beads (PerkinElmer).
PDE1A, sequence (P54750 whole entry): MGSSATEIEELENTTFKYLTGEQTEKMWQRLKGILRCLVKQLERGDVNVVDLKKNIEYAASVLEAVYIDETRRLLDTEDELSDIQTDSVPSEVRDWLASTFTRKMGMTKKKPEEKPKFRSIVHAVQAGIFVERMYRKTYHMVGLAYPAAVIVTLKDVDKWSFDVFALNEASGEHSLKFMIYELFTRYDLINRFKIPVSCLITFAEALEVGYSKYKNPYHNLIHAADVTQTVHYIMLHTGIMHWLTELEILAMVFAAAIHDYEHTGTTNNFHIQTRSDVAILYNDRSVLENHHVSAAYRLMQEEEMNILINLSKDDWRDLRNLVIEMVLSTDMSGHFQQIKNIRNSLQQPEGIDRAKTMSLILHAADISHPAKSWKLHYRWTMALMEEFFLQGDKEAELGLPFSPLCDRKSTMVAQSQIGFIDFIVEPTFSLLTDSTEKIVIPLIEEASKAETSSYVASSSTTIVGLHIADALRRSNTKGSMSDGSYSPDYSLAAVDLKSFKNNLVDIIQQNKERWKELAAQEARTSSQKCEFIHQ

PDE1B, sequence (Q01064 whole entry): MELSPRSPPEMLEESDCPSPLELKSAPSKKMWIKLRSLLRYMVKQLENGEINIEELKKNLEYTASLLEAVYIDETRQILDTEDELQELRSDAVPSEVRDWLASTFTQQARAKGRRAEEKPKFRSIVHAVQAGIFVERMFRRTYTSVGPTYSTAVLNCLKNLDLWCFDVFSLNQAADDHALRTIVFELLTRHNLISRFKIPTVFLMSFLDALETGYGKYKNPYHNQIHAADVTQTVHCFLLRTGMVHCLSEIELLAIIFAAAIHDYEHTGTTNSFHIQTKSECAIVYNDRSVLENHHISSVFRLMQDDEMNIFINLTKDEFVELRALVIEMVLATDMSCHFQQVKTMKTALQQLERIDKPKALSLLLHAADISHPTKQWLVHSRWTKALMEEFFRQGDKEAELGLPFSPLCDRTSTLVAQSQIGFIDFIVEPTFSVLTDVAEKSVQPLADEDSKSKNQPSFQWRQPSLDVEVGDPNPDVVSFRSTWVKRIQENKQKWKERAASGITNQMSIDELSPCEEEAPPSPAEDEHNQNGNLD
PDE1C, sequence (Q14123 whole entry): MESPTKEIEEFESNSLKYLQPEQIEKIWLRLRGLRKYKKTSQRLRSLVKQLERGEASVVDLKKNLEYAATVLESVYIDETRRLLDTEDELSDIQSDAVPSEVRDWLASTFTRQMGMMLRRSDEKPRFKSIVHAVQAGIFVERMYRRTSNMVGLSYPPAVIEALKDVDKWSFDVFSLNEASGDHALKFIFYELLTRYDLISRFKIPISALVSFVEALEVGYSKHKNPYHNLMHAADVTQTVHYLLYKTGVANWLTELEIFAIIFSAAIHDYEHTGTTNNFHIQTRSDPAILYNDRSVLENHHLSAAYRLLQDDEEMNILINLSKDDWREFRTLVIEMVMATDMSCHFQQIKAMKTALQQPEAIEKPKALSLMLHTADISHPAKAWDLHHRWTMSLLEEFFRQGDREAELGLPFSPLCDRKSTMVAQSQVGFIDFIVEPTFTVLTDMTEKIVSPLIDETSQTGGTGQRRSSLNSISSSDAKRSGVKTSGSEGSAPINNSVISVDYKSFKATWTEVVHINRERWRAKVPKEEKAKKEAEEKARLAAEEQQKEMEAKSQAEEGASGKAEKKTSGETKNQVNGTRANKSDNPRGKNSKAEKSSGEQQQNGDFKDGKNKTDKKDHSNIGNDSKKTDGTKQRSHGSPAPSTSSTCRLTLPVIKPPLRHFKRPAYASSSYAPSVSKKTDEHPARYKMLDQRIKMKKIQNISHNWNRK
PDE9, sequence (O76083 whole entry): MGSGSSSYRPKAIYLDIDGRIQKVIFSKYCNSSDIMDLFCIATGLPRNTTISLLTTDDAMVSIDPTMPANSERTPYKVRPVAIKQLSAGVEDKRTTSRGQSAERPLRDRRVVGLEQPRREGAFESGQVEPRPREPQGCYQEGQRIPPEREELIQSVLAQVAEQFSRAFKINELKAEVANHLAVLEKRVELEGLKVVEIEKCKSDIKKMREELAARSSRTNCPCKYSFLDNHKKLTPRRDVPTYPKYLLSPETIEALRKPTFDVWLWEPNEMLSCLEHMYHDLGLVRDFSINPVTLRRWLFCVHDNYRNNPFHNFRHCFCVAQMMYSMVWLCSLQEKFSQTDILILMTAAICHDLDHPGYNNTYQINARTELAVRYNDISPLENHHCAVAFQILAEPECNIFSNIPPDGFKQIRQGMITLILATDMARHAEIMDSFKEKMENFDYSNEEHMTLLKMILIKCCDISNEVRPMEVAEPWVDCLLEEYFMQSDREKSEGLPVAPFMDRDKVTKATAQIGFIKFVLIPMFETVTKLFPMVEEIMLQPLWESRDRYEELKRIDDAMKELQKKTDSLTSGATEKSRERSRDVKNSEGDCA

As to `COc1ccc(Cn2c(C)cn3c(N4CCOC[C@H]4C)ncc3c2=O)cc1` [Example 95, (R)-7-(4-methoxybenzyl)-6-methyl-3-(3-methylmorpholino)imidazo[1,5-a]pyrazin-8(7H)-one], the inhibition at 10 µM in assay [1] amounted to 9%. Further, the IC50 is 162 nM in assay [2], 218 nM in assay [3] and 258 nM in assay [4].
For `O=c1c2cnc(C3CCOCC3)n2cc(Cc2ccccc2)n1Cc1cccc(F)c1` [Example 2, 6-Benzyl-7-(3-fluorobenzyl)-3-(tetrahydro-2H-pyran-4-yl)imidazo[1,5-a]pyrazin-8(7H)-one] the same measures were -14%, 14 nM, 11 nM and 51 nM.
For `COc1ccc(Cn2c(C)cn3c(C4CCc5ccc(Cl)cc54)ncc3c2=O)cc1` (centres unmarked) [Example 74, 3-(6-chloro-2,3-dihydro-1H-inden-1-yl)-7-(4-methoxybenzyl)-6-methylimidazo[1,5-a]pyrazin-8(7H)-one], the inhibition at 10 µM in assay [1] was -19%. Moreover, the values for the IC50 in assay [2], in assay [3] and in assay [4] were 2 nM, 3 nM and 5 nM, respectively.
`Cc1cn2c(C3CCOCC3)ncc2c(=O)n1CC1CCCCCC1` [Example 65, 7-(cycloheptylmethyl)-6-methyl-3-(tetrahydro-2H-pyran-4-yl)imidazo[1,5-a]pyrazin-8(7H)-one]: the inhibition at 10 µM in assay [1] was 11%. The IC50 stood at 6 nM in assay [2], 5 nM in assay [3] and 10 nM in assay [4].
In the case of `O=c1c2cnc(C3CC3)n2ccn1CC1CCCC1` [Example 7, 7-(Cyclopentylmethyl)-3-cyclopropylimidazo[1,5-a]pyrazin-8(7H)-one], in assay [1], the inhibition at 10 µM is 1%. Besides, the inhibition at 2 µM in assay [2] (read-out: PDE1B, % inhibition (at 2 μM)) was 85%; in assay [4] (read-out: PDE1A, % inhibition (at 2 μM)), 60%. Moreover, the IC50 in assay [3] was 230 nM.
As to `Cc1cn2c(N3CCC4OCCC43)ncc2c(=O)n1Cc1cccc(F)c1` (single isomer, unassigned; isomer 1) [99, isomer 1], the “% inhibition of PDE9 at 10 microM” value in assay [1] worked out at 9%. The IC50 came out at 134 nM in assay [2], 27 nM in assay [3] and 241 nM in assay [4].
`COc1ccc(Cn2c(C)cn3c(C4CCOCC4C)ncc3c2=O)cc1` (centres unmarked) [Example 69, 7-(4-methoxybenzyl)-6-methyl-3-(3-methyltetrahydro-2H-pyran-4-yl)imidazo[1,5-a]pyrazin-8(7H)-one]: the inhibition at 10 µM in assay [1] stood at 2%. Moreover, the IC50 in assay [2] amounted to 8 nM; in assay [3], 24 nM; in assay [4] it was 13 nM.
With `Cc1cc(Cn2c(C)cn3c(C4CCOCC4)ncc3c2=O)no1` [Example 82, 6-methyl-7-((5-methylisoxazol-3-yl)methyl)-3-(tetrahydro-2H-pyran-4-yl)imidazo[1,5-a]pyrazin-8(7H)-one], the inhibition at 10 µM in assay [1] came out at 7%; in assay [4] (read-out: PDE1A, % inhibition (at 10 μM)), 67%. The IC50 is 1500 nM in assay [2] and 1030 nM in assay [3].
Turning to `CC(=O)Nc1ccc(Cn2c(C)cn3c(C4CCOCC4)ncc3c2=O)cc1` [Example 47, N-(4-((6-methyl-8-oxo-3-(tetrahydro-2H-pyran-4-yl)imidazo[1,5-a]pyrazin-7(8H)-yl)methyl)phenyl)acetamide], the inhibition at 10 µM in assay [1] turned out to be 10%. The compound also registered an IC50 in assay [2] of 388 nM. The inhibition at 1 µM in assay [3] (read-out: PDE1C, % inhibition (at 1 μM)) was 10%; in assay [4] (read-out: PDE1A, % inhibition (at 1 μM)) it was 0%.
`Cc1cn2c([C@H]3CCOC3)ncc2c(=O)n1Cc1cccc(F)c1` (single isomer, unassigned; isomer 2) [31, isomer 2]: the “% inhibition of PDE9 at 10 microM” value in assay [1] is 5%. The figures for the IC50 in assay [2], in assay [3] and in assay [4] were 138 nM, 31 nM and 347 nM, respectively.
For `CCc1cn2c(C3CCOCC3)ncc2c(=O)n1Cc1ccccc1` [Example 43, 7-benzyl-6-ethyl-3-(tetrahydro-2H-pyran-4-yl)imidazo[1,5-a]pyrazin-8(7H)-one], the inhibition at 10 µM in assay [1] turned out to be 6%. In addition, the half-maximal inhibitory concentration (IC50) in assay [2] amounted to 32 nM; in assay [3], 9 nM; in assay [4], 105 nM.
Turning to `Cc1cn2c(C3CCOCC3)ncc2c(=O)n1Cc1cccc(Cl)c1` [Example 18, 7-(3-Chlorobenzyl)-6-methyl-3-(tetrahydro-2H-pyran-4-yl)imidazo[1,5-a]pyrazin-8(7H)-one], in assay [1], the inhibition at 10 µM came to 31%. Also, the IC50 in assay [2] was found to be 49 nM; in assay [3], 8 nM; in assay [4], 57 nM.
For `Cc1cn2c(C3CCOCC3)ncc2c(=O)n1Cc1ccc(Cl)cc1` [Example 14, 7-(4-Chlorobenzyl)-6-methyl-3-(tetrahydro-2H-pyran-4-yl)imidazo[1,5-a]pyrazin-8(7H)-one] the same measures were 22%, 15 nM, 51 nM and 18 nM.
As to `O=c1c2cnc(C3CC3)n2ccn1CC1CCCCCC1` [Example 13, 7-(Cycloheptylmethyl)-3-cyclopropylimidazo[1,5-a]pyrazin-8(7H)-one], the inhibition at 10 µM in assay [1] was determined as 7%. Further, the IC50 in assay [2] was 50 nM; in assay [3], 62 nM; in assay [4], 87 nM.
